Counter-ions that a name gives are not always drawn. Like-named read-outs stand apart in the source and are kept apart here.
System: spinal nerve roots of the cauda equina
Experiment: Compound nerve action potentials (CAPs) recorded in vitro from isolated spinal nerve roots
Set-up: species or system rats
Details: for IC50: K+ concentration read from the dose-response curves, read-out: 50% reduction of the CAP
Description: Using the method as described in J. Physiol 275, (1978), pages 177-189, experiments were carried out in vitro on spinal nerve roots of the cauda equina dissected from killed rats. Compound nerve action potentials (CAPs) were recorded from the nerves which were placed in a bath incorporating stimulating and recording electrodes and analyzed with MacLab Scope. Kreb's solutions containing various potassium ion concentrations were applied for 5 minutes to an isolated central portion of the nerve between the two sets of electrodes. With all potassium salts tested, the amplitude and area of the CAPs were reduced in a dose-dependent manner by test solutions containing 8 mM K⁺ or more. "Mean INT" in the table is the mean integrated CAP, expressed as a percentage of the control response, i.e. the response obtained with Krebs' solution containing 4mM K⁺. There were no differences in the results for CAP peak amplitudes and integrated CAPs.
Wilcoxons' Sum of Ranks test was used to compare the % of control I-CAP values obtained after 5 min exposure to the different K⁺ salts at equivalent concentrations.

[1] = [K+] 8 mM, applied for 5 minutes, mean integrated CAP as percentage of control response (Krebs' solution containing 4mM K+)
[2] = [K+] 16 mM, applied for 5 minutes, mean integrated CAP as percentage of control response (Krebs' solution containing 4mM K+)
[3] = [K+] 24 mM, applied for 5 minutes, mean integrated CAP as percentage of control response (Krebs' solution containing 4mM K+)
[4] = [K+] 32 mM, applied for 5 minutes, mean integrated CAP as percentage of control response (Krebs' solution containing 4mM K+)
[5] = [K+] 64 mM, applied for 5 minutes, mean integrated CAP as percentage of control response (Krebs' solution containing 4mM K+)

Compound	IC50	mean INT.(%) [1]	mean INT.(%) [2]	mean INT.(%) [3]	mean INT.(%) [4]	mean INT.(%) [5]	effect on CAP compared with potassium oxalate (16-64 mM K+, p < 0.05)	activity at 8000 µM (Rattus norvegicus, 5 min, [K+] 8 mM, applied for 5 minutes, mean integrated CAP as percentage of control response (Krebs' solution containing 4mM K+), read-out: mean INT.(%))	activity at 16000 µM (Rattus norvegicus, 5 min, [K+] 16 mM, applied for 5 minutes, mean integrated CAP as percentage of control response (Krebs' solution containing 4mM K+), read-out: mean INT.(%))	activity at 24000 µM (Rattus norvegicus, 5 min, [K+] 24 mM, applied for 5 minutes, mean integrated CAP as percentage of control response (Krebs' solution containing 4mM K+), read-out: mean INT.(%))	activity at 32000 µM (Rattus norvegicus, 5 min, [K+] 32 mM, applied for 5 minutes, mean integrated CAP as percentage of control response (Krebs' solution containing 4mM K+), read-out: mean INT.(%))	activity at 64000 µM (Rattus norvegicus, 5 min, [K+] 64 mM, applied for 5 minutes, mean integrated CAP as percentage of control response (Krebs' solution containing 4mM K+), read-out: mean INT.(%))	IC50 (Rattus norvegicus)
potassium oxalate [K₂Oxalate]	14.3 mM	84%	42%	11%	3%	1%	–	–	–	–	–	–	–
O=C(O)C(O)C(O)C(=O)O (stereo not shown) [K₂Tartrate, dipotassium tartrate]	–	–	–	–	–	–	significantly greater	83%	15%	2%	1%	1%	11.6 mM
O=[N+]([O-])[O-].[K+] [KNO₃, potassium nitrate]	17.4 mM	91%	54%	17%	2%	0%	–	–	–	–	–	–	–
[Cl-].[K+] [KCl, potassium chloride]	17.8 mM	98%	59%	13%	1%	0%	–	–	–	–	–	–	–

— patent publication EP0657160A1, “Oral composition for desensitising sensitive teeth” (UNILEVER N.V., priority 1993, dated 1995)
